Patent US20150191462A1, “PYRROLIDINE DERIVATIVES AND THEIR USE AS COMPLEMENT PATHWAY MODULATORS” (priority 2012, published 2015)

Each compound was assayed against Recombinant human factor D (Homo sapiens, UniProt P00746) (assay: Human Complement Factor D Assay: Method 1). Conditions: Factor D inhibition, 10 nM factor D, Z-Lys-thiobenzyl substrate, fluorescence readout.
Format: biochemical
Protocol: Human Complement Factor D Assay: Method 1 Recombinant human factor D (expressed in E. coli and purified using standard methods) at 10 nM concentration is incubated with test compound at various concentrations for 1 hour at room temperature in 0.1 M Hepes buffer, pH 7.5, containing 1 mM MgCl2, 1 M NaCl and 0.05% CHAPS. […] The increase in fluorescence is recorded at excitation of 485 nm and emission at 535 nm in a microplate spectrofluorimeter. IC50 values are calculated from percentage of inhibition of complement factor D-activity as a function of test compound concentration.

Chain of Recombinant human factor D (P00746 26-253): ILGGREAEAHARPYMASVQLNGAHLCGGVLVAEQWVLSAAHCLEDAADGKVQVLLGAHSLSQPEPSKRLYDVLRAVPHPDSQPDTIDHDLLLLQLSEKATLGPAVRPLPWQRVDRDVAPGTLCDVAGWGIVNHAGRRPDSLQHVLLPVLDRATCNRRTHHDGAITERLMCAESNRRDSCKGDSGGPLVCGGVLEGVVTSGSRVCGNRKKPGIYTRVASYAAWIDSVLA

Compound	IC50
CC(=O)c1nn(CC(=O)N2[C@@H]3C[C@@H]3C[C@H]2C(=O)Nc2cccc(OC(F)F)n2)c2ccc(OCc3ncccn3)cc12 [Example 6, (1R,3S,5R)-2-{2-[3-Acetyl-5-(pyrimidin-2-ylmethoxy)-indazol-1-yl]-acetyl}-2-aza-bicyclo[3.1.0]hexane-3-carboxylic acid (6-difluoromethoxy-pyridin-2-yl)-amide]	38 nM
Cc1ccc2c(C(N)=O)nn(CC(=O)N3[C@@H]4C[C@@H]4C[C@H]3C(=O)Nc3cccc(Br)n3)c2c1 [Example 8, 1-{2-[(1R,3S,5R)-3-(6-Bromo-pyridin-2-ylcarbamoyl)-2-aza-bicyclo[3.1.0]hex-2-yl]-2-oxo-ethyl}-6-methyl-1H-indazole-3-carboxylic acid amide]	5 nM
NC(=O)c1nn(CC(=O)N2[C@@H]3C[C@@H]3C[C@H]2C(=O)Nc2cncc(C(F)(F)F)n2)c2ccccc12 [Example 9, 1-{2-Oxo-2-[(1R,3S,5R)-3-(6-trifluoromethyl-pyrazin-2-ylcarbamoyl)-2-aza-bicyclo[3.1.0]hex-2-yl]ethyl}-1H-indazole-3-carboxylic acid amide]	32 nM
NC(=O)c1nn(CC(=O)N2[C@@H]3C[C@@H]3C[C@H]2C(=O)Nc2cccc(Br)n2)c2ccncc12 [Example 10, 1-{2-[(1R,3S,5R)-3-(6-Bromo-pyridin-2-ylcarbamoyl)-2-aza-bicyclo[3.1.0]hex-2-yl]-2-oxo-ethyl}-1H-pyrazolo[4,3-c]pyridine-3-carboxylic acid amide]	9 nM
CC(=O)c1nn(CC(=O)N2[C@@H]3C[C@@H]3C[C@H]2C(=O)Nc2cncc(C(F)(F)F)n2)c2cnccc12 [Example 17, (1R,3S,5R)-2-[2-(3-Acetyl-pyrazolo[3,4-c]pyridin-1-yl)-acetyl]-2-aza-bicyclo[3.1.0]hexane-3-carboxylic acid (6-trifluoromethyl-pyrazin-2-yl)-amide]	64 nM
CO[C@H]1[C@@H](C(=O)Nc2cccc(Br)n2)N(C(=O)Cn2nc(C(C)=O)c3ccncc32)C[C@@H]1F [Example 18, (2S,3S,4S)-1-[2-(3-Acetyl-pyrazolo[3,4-c]pyridin-1-yl)-acetyl]-4-fluoro-3-methoxy-pyrrolidine-2-carboxylic acid (6-bromo-pyridin-2-yl)-amide]	7 nM
NC(=O)c1nn(CC(=O)N2[C@@H]3C[C@@H]3C[C@H]2C(=O)Nc2cccc(Cl)n2)c2ccccc12 [Example 20, 1{2-[(1R,3S,5R)-3-(6-Chloro-pyridin-2-ylcarbamoyl)-2-aza-bicyclo[3.1.0]hex-2-yl]-2-oxo-ethyl}-1H-indazole-3-carboxylic acid amide]	4 nM
NC(=O)c1nn(CC(=O)N2[C@@H]3C[C@@H]3C[C@H]2C(=O)Nc2cccc(I)n2)c2ccccc12 [Example 21, 1-{2-[(1R,3S,5R)-3-(6-Iodo-pyridin-2-ylcarbamoyl)-2-aza-bicyclo[3.1.0]hex-2-yl]-2-oxo-ethyl}-1H-indazole-3-carboxylic acid amide]	3 nM
COc1cc(Br)nc(NC(=O)[C@@H]2C[C@H]3C[C@H]3N2C(=O)Cn2nc(C(N)=O)c3ccccc32)c1 [Example 22, 1-{2-[(1R,3S,5R)-3-(6-Bromo-4-methoxy-pyridin-2-ylcarbamoyl)-2-aza-bicyclo[3.1.0]hex-2-yl]-2-oxo-ethyl}-1H-indazole-3-carboxylic acid amide]	5 nM
NC(=O)c1nn(CC(=O)N2CCS[C@H]2C(=O)Nc2cccc(Br)n2)c2ccccc12 [Example 25, (S)-N-(6-bromopyridin-2-yl)-3-(2-(3-carbamoyl-1H-indazol-1-yl)acetyl)thiazolidine-2-carboxamide]	10 nM
NC(=O)c1nn(CC(=O)N2C3CC(C3)C2C(=O)Nc2cccc(Br)n2)c2ccccc12 (stereo not drawn) [Example 28, N-(6-bromopyridin-2-yl)-2-(2-(3-carbamoyl-1H-indazol-1-yl)acetyl)-2-azabicyclo[2.1.1]hexane-3-carboxamide]	120 nM

More lines, in order of falling IC50, values ahead:

IC50	Compound
80 nM	NC(=O)c1nn(CC(=O)N2CC[C@H](F)[C@H]2C(=O)Nc2cccc(Br)n2)c2ccccc12 [Example 27, 1-(2-((2R,3S)-2-((6-bromopyridin-2-yl)carbamoyl)-3-fluoropyrrolidin-1-yl)-2-oxoethyl)-1H-indazole-3-carboxamide]
40 nM	CNC(=O)c1nn(CC(=O)N2[C@@H]3C[C@@H]3C[C@H]2C(=O)Nc2cccc(Br)n2)c2ccccc12 [Example 26, 1-(2-((1R,3S,5R)-3-((6-bromopyridin-2-yl)carbamoyl)-2-azabicyclo[3.1.0]hexan-2-yl)-2-oxoethyl)-N-methyl-1H-indazole-3-carboxamide]
24 nM	NC(=O)c1nn(CC(=O)N2[C@@H]3C[C@@H]3C[C@H]2C(=O)Nc2cccc(Br)n2)c2nnccc12 [Example 3, 1-{2-[(1R,3S,5R)-3-(6-Bromo-pyridin-2-ylcarbamoyl)-2-aza-bicyclo[3.1.0]hex-2-yl]-2-oxo-ethyl}-1H-pyrazolo[3,4-c]pyridazine-3-carboxylic acid amide]
19 nM	NC(=O)c1nn(CC(=O)N2[C@@H]3C[C@@H]3C[C@H]2C(=O)Nc2cncc(Br)n2)c2ncccc12 [Example 1, 1-{2-[(1R,3S,5R)-3-(6-Bromo-pyrazin-2-ylcarbamoyl)-2-aza-bicyclo[3.1.0]hex-2-yl]-2-oxo-ethyl}-1H-pyrazolo[3,4-b]pyridine-3-carboxylic acid amide]
18 nM	CCc1cc2c(C(N)=O)nn(CC(=O)N3[C@@H]4C[C@@H]4C[C@H]3C(=O)Nc3cccc(C(F)(F)F)n3)c2cn1 [Example 2, 5-Ethyl-1-{2-oxo-2-[(1R,3S,5R)-3-(6-trifluoromethyl-pyridin-2-ylcarbamoyl)-2-aza-bicyclo[3.1.0]hex-2-yl]-ethyl}-1H-pyrazolo[3,4-c]pyridine-3-carboxylic acid amide]
17 nM	CC(=O)c1nn(CC(=O)N2[C@@H]3C[C@@H]3C[C@H]2C(=O)Nc2cncc(C(F)(F)F)n2)c2ccccc12 [Example 16, (1R,3S,5R)-2-[2-(3-Acetyl-indazol-1-yl)-acetyl]-2-aza-bicyclo[3.1.0]hexane-3-carboxylic acid (6-trifluoromethyl-pyrazin-2-yl)-amide]
16 nM	CC(=O)c1nn(CC(=O)N2[C@@H]3C[C@@H]3C[C@H]2C(=O)Nc2cnc(C)c(Br)n2)c2cnccc12 [Example 12, (1R,3S,5R)-2-[2-(3-Acetyl-pyrazolo[3,4-c]pyridin-1-yl)-acetyl]-2-aza-bicyclo[3.1.0]hexane-3-carboxylic acid (6-bromo-5-methyl-pyrazin-2-yl)-amide]
14 nM	CC(=O)c1nn(CC(=O)N2C[C@H]3C[C@H]3[C@H]2C(=O)Nc2cccc(Br)n2)c2cnccc12 [Example 15, (1R,2S,5S)-3-[2-(3-Acetyl-pyrazolo[3,4-c]pyridin-1-yl)-acetyl]-3-aza-bicyclo[3.1.0]hexane-2-carboxylic acid (6-bromo-pyridin-2-yl)-amide]
11 nM	CC(=O)c1nn(CC(=O)N2[C@@H]3C[C@@H]3C[C@H]2C(=O)Nc2cncc(Br)n2)c2cnccc12 [Example 14, (1R,3S,5R)-2-[2-(3-Acetyl-pyrazolo[3,4-c]pyridin-1-yl)-acetyl]-2-aza-bicyclo[3.1.0]hexane-3-carboxylic acid (6-bromo-pyrazin-2-yl)-amide]
11 nM	C[C@@]1(F)C[C@@H](C(=O)Nc2cccc(Br)n2)N(C(=O)Cn2nc(C(N)=O)c3ccccc32)C1 [Example 19, 1-{2-[(2S,4R)-2-(6-Bromo-pyridin-2-ylcarbamoyl)-4-fluoro-4-methyl-pyrrolidin-1-yl]-2-oxo-ethyl}-1H-indazole-3-carboxylic acid amide]
9 nM	CC(=O)c1nn(CC(=O)N2C[C@H](F)C[C@H]2C(=O)Nc2cccc(Br)n2)c2cnccc12 [Example 13, (2S,4R)-1-[2-(3-Acetyl-pyrazolo[3,4-c]pyridin-1-yl)-acetyl]-4-fluoro-pyrrolidine-2-carboxylic acid (6-bromo-pyridin-2-yl)-amide]
8 nM	NC(=O)c1nn(CC(=O)N2C[C@H](F)[C@H](F)[C@H]2C(=O)Nc2cccc(Br)n2)c2ccccc12 [Example 23, 1-{2-[(2R,3R,4S)-2-(6-Bromo-pyridin-2-ylcarbamoyl)-3,4-difluoro-pyrrolidin-1-yl]-2-oxo-ethyl}-1H-indazole-3-carboxylic acid amide]
7 nM	NC(=O)c1nn(CC(=O)N2C[C@H](F)C[C@H]2C(=O)Nc2cccc(Br)n2)c2cnc(CF)cc12 [Example 24, 1-(2-((2S,4R)-2-(6-bromopyridin-2-ylcarbamoyl)-4-fluoropyrrolidin-1-yl)-2-oxoethyl)-5-(fluoromethyl)-1H-pyrazolo[3,4-c]pyridine-3-carboxamide]
6 nM	Cc1ncc(NC(=O)[C@@H]2C[C@H]3C[C@H]3N2C(=O)Cn2nc(C(N)=O)c3ccccc32)nc1Br [Example 7, 1-{2-[(1R,3S,5R)-3-(6-Bromo-5-methyl-pyrazin-2-ylcarbamoyl)-2-aza-bicyclo[3.1.0]hex-2-yl]-2-oxo-ethyl}-1H-indazole-3-carboxylic acid amide]
5 nM	NC(=O)c1nn(CC(=O)N2[C@@H]3C[C@@H]3C[C@H]2C(=O)Nc2cccc(Br)n2)c2cc(F)ccc12 [Example 11, 1-{2-[(1R,3S,5R)-3-(6-Bromo-pyridin-2-ylcarbamoyl)-2-aza-bicyclo[3.1.0]hex-2-yl]-2-oxo-ethyl}-6-fluoro-1H-indazole-3-carboxylic acid amide]
4 nM	NC(=O)c1nn(CC(=O)N2[C@@H]3C[C@@H]3C[C@H]2C(=O)Nc2cccc(Br)n2)c2cnc(C3CC3)cc12 [Example 5, 1-{2-[(1R,3S,5R)-3-(6-Bromo-pyridin-2-ylcarbamoyl)-2-aza-bicyclo[3.1.0]hex-2-yl]-2-oxo-ethyl}-5-cyclopropyl-1H-pyrazolo[3,4-c]pyridine-3-carboxylic acid amide]
